Measured values as given in PMC6880814, “Skeletocutins M–Q: biologically active compounds from the fruiting bodies of the basidiomycete Skeletocutis sp. collected in Africa” (Beilstein Journal of Organic Chemistry, 2019).
Converted amounts (≈) assume the structure as drawn. “And” between values parts separate entries of the source, which are not always exact repeats. Equal entries are not always repeated. “Also recorded” adds a separate entry of the source.

Assays:
S. aureus DSM1104 = assay: Inhibition of biofilm formation; assay type: cell-based, Staphylococcus aureus; set-up: biofilm inhibition results from plate reader: reference not given here; conditions: for biofilm inhibition results from plate reader: raw reading, replications 1-3; for inhibition of biofilm formation (in words): S. aureus
Description: The assay was performed in Falcon® 96-well flat bottom plates as previously described. […] Methanol was used as negative control, while tetracycline was used as positive control. All experiments were made in triplicates.

[1] = test system: surface-bound aminopeptidases of KB3.1 cells; assay: Inhibition of ʟ-Leu-AMC hydrolysis (leucine aminopeptidases); assay type: cell-based; conditions: for IC50, inhibition of ʟ-Leu-AMC hydrolysis: KB3.1 cells
Description: Hydrolysis of ʟ-Leu-AMC by the surface-bound aminopeptidases of KB3.1 cells was assayed based on the method from Weber and co-workers with slight modifications. KB3.1 cells were grown as monolayer cultures in Dulbecco's modified Eagle's medium (DMEM) containing 10% fetal calf serum at 37 °C in 24-well multidishes. After three days, the confluent monolayers were washed twice with phosphate buffered saline (PBS), and the reaction mixture (450 µL Hanks' buffer at pH 7.2 containing 50 or 100 µM substrate ʟ-Leu-AMC, compounds dissolved in 50 µL DMSO) was added. After being incubated at 23 °C for 30 min, 1 mL cold 0.2 M glycine buffer at pH 10.5 was added. The amount of hydrolyzed 7-amino-4-methylcoumarin (AMC) was measured in a Tecan Infinite M200 PRO fluorescence spectrophotometer (excitation and emission at λ = 365 and 440 nm, respectively). Bestatin [12] and DMSO were used as positive and negative control, respectively.

[2] = test system: surface-bound aminopeptidases of KB3.1 cells; assay: as above; assay type: cell-based; conditions: at 50 and 110 µM substrate concentration
[3] = test system: several Gram-positive bacteria (Bacillus subtilis, S. aureus, MRSA, Micrococcus luteus); set-up: method as in PMID 31310114; conditions: B. subtilis, M. luteus; cited from earlier work
[4] = test system: leucine aminopeptidase in HeLa S3 cells; set-up: method as in PMID 1620745; conditions: 50 μM substrate concentration; cited from earlier work

Row | Compound | biofilm inhibition results from plate reader (S. aureus DSM1104; 32 µg/ml) | biofilm inhibition results from plate reader (S. aureus DSM1104; 64 µg/ml) | biofilm inhibition results from plate reader (S. aureus DSM1104; 128 µg/ml) | biofilm inhibition results from plate reader (S. aureus DSM1104; 256 µg/ml) | biofilm inhibition results from plate reader (S. aureus DSM1104; 8 µg/ml) | biofilm inhibition results from plate reader (S. aureus DSM1104; 16 µg/ml) | ʟ-Leu-AMC inhibition assay (in words) [1] | IC50, inhibition of ʟ-Leu-AMC hydrolysis ([1]; ʟ-Leu-AMC (50 µM)) | IC50, inhibition of ʟ-Leu-AMC hydrolysis ([1]; ʟ-Leu-AMC (100 µM)) | inhibition of biofilm formation (in words) (S. aureus DSM1104) | IC50, inhibition of ʟ-Leu-AMC hydrolysis [2] | activity against Gram-positive bacteria (in words) [3] | IC50, similar assay against HeLa S3 cells [4]
1 | CN(C)[C@@H]1C(O)=C(C(N)=O)C(=O)[C@@]2(O)C(O)=C3C(=O)c4c(O)cccc4[C@@](C)(O)[C@H]3C[C@@H]12 [Tetracycline, reference compound] | 1.107 and 1.315 and 1.404 and 1.155 and 0.918 and 0.791 | 0.885 and 0.917 and 0.836 and 0.83 and 0.627 and 0.95 | 0.622 and 0.527 and 0.478 and 0.693 and 0.655 and 0.765 | 0.462 and 0.414 and 0.487 and 0.644 and 0.444 and 0.498 |  |  |  |  |  |  |  |  | 
2 | CC1=C(CCCCCCCCCCCCCCCCC/C=C(\C(=O)O)C(CC(=O)O)C(=O)O)C(=O)OC1=O (stereo not drawn) [Compound 4, (Z)-21-(4’-methyl-2’,5’-dioxo-2’,5’-dihydrofuran-3’-yl)henicos-3-ene-1,2,3-tricarboxylic acid] | 4.702 and 3.439 and 4.271 | 3.957 and 3.887 and 3.524 | 4.03 and 4.115 and 4.224 | 6 and 5.066 and 4.841 | 4.243 and 3.452 and 3.554 | 4.47 and 3.878 and 4.114 | performed moderately | 71.1 µg/mL | 102.3 µg/mL |  |  |  | 
3 | CC1=C(CCCCCCCCCCCCCCCCCCC(C(=O)O)C(CC(=O)O)C(=O)O)C(=O)OC1=O (stereo not drawn) [Compound 5, 21-(4’-methyl-2’,5’-dioxo-2’,5’-dihydrofuran-3’-yl)henicosane-1,2,3-tricarboxylic acid] | 4.452 and 3.838 and 3.757 | 3.708 and 3.627 and 3.623 | 3.871 and 3.836 and 3.597 | 3.822 and 3.87 and 3.988 | 3.444 and 2.956 and 3.704 | 3.633 and 3.438 and 3.879 |  | 153.2 µg/mL | 225.3 µg/mL | weakly inhibit | > 80 µg/mL |  | 
4 | CC1=C(CCCCCCCCCCCCCCCCCCC2=C(C)C(=O)OC2=O)C(=O)OC1=O [Compound 1, 1,18-bis[4′-methyl-2′,5′-dioxo-3′-furyl]octadecane] | 3.45 and 3.219 and 3.38 | 3.207 and 4.69 and 3.419 | 3.365 and 3.804 and 3.615 | 4.909 and 5.651 and 4.54 | 3.282 and 3.031 and 2.758 | 3.706 and 3.472 and 3.059 |  |  |  |  |  |  | 
5 | CC1=C(CCCCCCCCCCCCCCCCCC/C=C(\CC(=O)O)C(=O)O)C(=O)OC1=O [Compound 3, (E)-2-(19-(4’-methyl-2’,5’-dioxo-2’,5’-dihydrofuran-3’-yl)nonadecylidene)butanedioic acid] | 2.875 and 3.534 and 3.458 | 3.373 and 3.63 and 3.041 | 3.752 and 3.854 and 3.496 | 1.742 and 2.419 and 2.26 | 2.88 and 3.631 and 3.132 | 2.837 and 3.385 and 3.2 | performed moderately | 89.6 µg/mL | 130.4 µg/mL | moderately inhibited; also recorded: weakly inhibit | > 80 µg/mL |  | 
6 | CC1=C(CCCCCCCCCCCCCCCCCCCCC2=C(C)C(=O)OC2=O)C(=O)OC1=O [Compound 2, skeletocutin N] | 3.176 and 3.059 and 3.016 | 2.823 and 3.791 and 2.979 | 3.623 and 4.381 and 3.14 | 4.44 and 4.077 and 4.364 | 3.048 and 2.841 and 2.718 | 2.916 and 2.987 and 2.995 |  |  |  |  |  |  | 
7 | CC1=C(CCCCCCCCCCCCCCCCC2=C(C)C(=O)OC2=O)C(=O)OC1=O [Compound 6, tyromycin A] | 3.328 and 3.954 and 3.188 | 3.105 and 3.723 and 3.478 | 3.861 and 2.858 and 2.819 | 4.54 and 3.949 and 6 | 3.766 and 3.772 and 3.586 | 3.612 and 3.954 and 4.007 |  | 138.4 µg/mL |  |  |  | active | 31 µg/mL (≈ 69.4 µM)
8 | CC(C)C[C@H](NC(=O)[C@@H](O)[C@H](N)Cc1ccccc1)C(=O)O [Bestatin, reference compound] |  |  |  |  |  |  |  | 10.8 µg/mL | 40.9 µg/mL |  |  |  | 
